Assay results: PMC13155568, “A plant-specific cytochrome b5–like protein is essential for phytosterol biosynthesis” (Science Advances, 2025)

Target: T1, CBR1 (Arabidopsis thaliana, UniProt Q9ZNT1)
T1 sequence (Q9ZNT1 1-281): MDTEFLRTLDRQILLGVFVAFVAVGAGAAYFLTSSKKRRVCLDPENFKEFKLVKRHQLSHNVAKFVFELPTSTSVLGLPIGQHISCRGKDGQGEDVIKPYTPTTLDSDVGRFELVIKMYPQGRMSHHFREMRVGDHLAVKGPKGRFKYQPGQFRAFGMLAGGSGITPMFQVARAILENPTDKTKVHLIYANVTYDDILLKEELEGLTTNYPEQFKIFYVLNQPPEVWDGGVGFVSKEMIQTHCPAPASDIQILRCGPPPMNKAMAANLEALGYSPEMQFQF
T1 sequence (O22704 22-121 partner limits assumed): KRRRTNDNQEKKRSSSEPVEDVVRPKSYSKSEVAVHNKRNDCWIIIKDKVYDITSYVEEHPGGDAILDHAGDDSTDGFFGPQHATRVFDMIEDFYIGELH
Assay: reduction of recombinant CB5LP followed by Soret shift
Assay type: biochemical
Conditions: 100 uM NADH, 9 uM CB5LP as electron acceptor, Tris-HCl pH 7.5, room temperature

## NC(=O)C1=CN([C@@H]2O[C@H](COP(=O)(O)OP(=O)(O)OC[C@H]3O[C@@H](n4cnc5c(N)ncnc54)[C@H](O)[C@@H]3O)[C@@H](O)[C@H]2O)C=CC1 [NADH]
  reduction of recombinant CB5LP followed by Soret shift: CB5LP was effectively reduced by CBR1 in the presence of NADH
